Counter-ions that a name gives are not always drawn.
Tests used:
[1] = target: Dopamine Transporter (Homo sapiens, UniProt Q01959); experiment: Dopamine transporter assay; format: binding; conditions: dihydrochloride
Source text: (§1) Further, the compounds of the invention may be tested in binding assays and functional activity assays by well known methods for other physiologically important receptors such as, but not limited to, the hERG channel, other serotonin receptors (specifically 5-HT1A, 5-HT1B, 5-HT1D, 5-HT1E, 5-HT1F receptors, lack of agonist activity at 5-HT2B receptors, 5-HT2C, 5-HT4, 5-HTS, 5-HT6, and 5-HT7 receptors), muscarinic receptors, dopaminergic receptors (specifically D1, D2, and D3), GABAA receptors, adrenergic receptors and monoamine transporters. Certain exemplified compounds are tested at these receptors and are shown to lack significant activity.

[2] = target: 5-HT5 (Homo sapiens, UniProt P47898); experiment: 5-HT5 binding
Source text: as §1

[3] = target: Dopamine D1 (Homo sapiens, UniProt P21728); experiment: Dopamine D1 binding
Source text: as §1

[4] = tested on: Wistar rats; experiment: Sleep and behavioral monitoring in rats (EEG, EMG, motion); format: in vivo; conditions: rat; for Rebound Insomnia, Adj. Mean: NREM + REM sleep in 7th-9th hours post-treatment; for Rebound Insomnia, Adj. Mean / REM inhibition, Adj. Mean / Cumulative NREM sleep, Adj. Mean / Cumulative Total sleep, Adj. Mean / Locomotor Activity Intensity, Adj. Mean: difference from vehicle; for REM inhibition, Adj. Mean: REM sleep in first 12 hours post-treatment; for Cumulative NREM sleep, Adj. Mean / Cumulative Total sleep, Adj. Mean / Locomotor Activity Intensity, Adj. Mean / Average Sleep Bout, Adj. Mean / Longest Sleep Bout, Adj. Mean: first 6 hours post-treatment; for Average Sleep Bout, Adj. Mean / Longest Sleep Bout, Adj. Mean: n-fold increase over vehicle controls
Method: Sleep and behavioral monitoring in rats: Representative compounds of the present invention are tested in rats for their ability to increase the amount of sleep or decrease sleep interruption or both without undesired effects such as inhibition of REM sleep, waking motor impairment, and/or rebound insomnia. Test animals are continuously monitored by electro-encephalograms (EEG), electromyograms (EMG), and motion to measure cumulative nonREM sleep, cumulative total sleep, average sleep bout duration, longest sleep bout duration, rebound insomnia, REM sleep inhibition and locomotor activity intensity during wakefulness. Methods for such studies are known in the art (see for example methods described in Edgar D M, Seidel W F. Modafinil induces wakefulness without intensifying motor activity or subsequent rebound hypersomnolence in the rat. J Pharmacology & Experimental Therapeutics 1997; 283: 757-769; van Gelder R N, Edgar D M, Dement W C. Real-time automated sleep scoring: validation of a microcomputer-based system for mice. Sleep 1991, 14: 48-55; and Gross B A, Walsh C M, Turakhia A A, Booth V, Mashour G A, Poe G R. Open-source logic-based automated sleep scoring software using electrophysiological recordings in rats. J Neurosci Methods. 2009; 184(1):10-8.) Studies are conducted as follows: Animal preparation. Adult, male Wistar rats (approximately 270-300 g at time of surgery) are surgically fitted for chronic recording of EEG, EMG, and motion as follows: Rats are surgically prepared with a cranial implant consisting of four stainless steel screws for EEG recording (two frontal [3.9 mm anterior from bregma, and ±2.0 mm mediolaterally] and two occipital [6.4 mm posterior from bregma, ±5.5 mm mediolaterally]), and with two Teflon-coated stainless steel wires for EMG recording (positioned under the nuchal trapezoid muscles). All leads are soldered to a miniature connector (Microtech, Boothwyn, Pa.) prior to surgery. The implant assembly is affixed to the skull by the combination of the stainless steel EEG recording screws, cyanoacrylate applied between the implant connector and skull, and dental acrylic. Locomotor activity is monitored via a miniature transmitter (Minimitter PDT4000G, Philips Respironics, Bend, Oreg.) surgically placed into the abdomen. At least 3 weeks are allowed for recovery. Recording environment. Each rat is housed individually within a microisolator cage modified with an inserted polycarbonate filter-top riser to allow more vertical headroom. A flexible cable that minimally restricts movement is connected at one end to a commutator affixed to the cage top and at the other end to the animal's cranial implant. Each cage is located within separate, ventilated compartments of a stainless steel sleep-wake recording chamber. Food and water are available ad libitum and the ambient temperature is maintained at about 23±1° C. A 24-hr. light-dark cycle (LD 12:12) using fluorescent light is maintained throughout the study. Relative humidity averages approximately 50%. Animals are undisturbed for at least 30 hrs before and after each treatment. Study design and dosing. The vehicle (placebo, methylcellulose 15 centipoise 0.25% in water) or one of the test compound dose levels is administered orally at 1 mL/kg pseudo-randomly such that no rat receives the same treatment twice, and no rat receives more than two of the 8 treatments in any one study. Each rat is removed from its cage for about a minute to be weighed and treated. At least 6 days “washout” period precede and follow each treatment. Data collection. […]

[5] = PO, 6 hour period after treatment

Chain of Dopamine Transporter (Q01959 whole entry): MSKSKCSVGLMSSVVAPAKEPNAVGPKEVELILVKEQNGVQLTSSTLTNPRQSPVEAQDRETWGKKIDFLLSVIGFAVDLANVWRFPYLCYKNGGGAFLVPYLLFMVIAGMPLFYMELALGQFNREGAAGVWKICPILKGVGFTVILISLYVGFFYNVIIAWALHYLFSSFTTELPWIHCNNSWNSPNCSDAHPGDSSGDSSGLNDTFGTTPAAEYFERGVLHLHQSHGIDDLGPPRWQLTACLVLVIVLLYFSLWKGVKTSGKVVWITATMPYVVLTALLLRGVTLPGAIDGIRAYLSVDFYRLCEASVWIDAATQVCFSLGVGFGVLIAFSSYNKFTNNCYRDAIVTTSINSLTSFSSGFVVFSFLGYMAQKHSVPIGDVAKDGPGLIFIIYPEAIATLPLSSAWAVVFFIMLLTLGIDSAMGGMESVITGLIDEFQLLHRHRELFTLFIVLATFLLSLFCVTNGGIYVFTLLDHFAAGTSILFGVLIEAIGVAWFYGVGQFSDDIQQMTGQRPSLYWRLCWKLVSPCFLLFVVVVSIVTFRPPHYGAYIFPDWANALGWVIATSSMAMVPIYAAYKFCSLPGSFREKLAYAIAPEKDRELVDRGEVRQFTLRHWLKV
Chain of Dopamine D1 (P21728 whole entry): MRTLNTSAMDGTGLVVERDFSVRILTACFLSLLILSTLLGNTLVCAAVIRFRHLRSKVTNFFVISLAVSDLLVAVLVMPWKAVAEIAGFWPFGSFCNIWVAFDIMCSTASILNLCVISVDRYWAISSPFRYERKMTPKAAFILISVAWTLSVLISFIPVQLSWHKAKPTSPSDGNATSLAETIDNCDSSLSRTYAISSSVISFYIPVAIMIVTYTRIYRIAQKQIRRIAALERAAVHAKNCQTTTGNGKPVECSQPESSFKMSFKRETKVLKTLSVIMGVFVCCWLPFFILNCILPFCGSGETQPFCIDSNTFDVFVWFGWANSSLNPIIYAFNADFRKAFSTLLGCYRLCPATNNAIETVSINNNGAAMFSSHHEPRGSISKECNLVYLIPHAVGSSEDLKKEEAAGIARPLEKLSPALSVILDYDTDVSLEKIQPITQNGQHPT
Chain of 5-HT5 (P47898 whole entry, species assumed): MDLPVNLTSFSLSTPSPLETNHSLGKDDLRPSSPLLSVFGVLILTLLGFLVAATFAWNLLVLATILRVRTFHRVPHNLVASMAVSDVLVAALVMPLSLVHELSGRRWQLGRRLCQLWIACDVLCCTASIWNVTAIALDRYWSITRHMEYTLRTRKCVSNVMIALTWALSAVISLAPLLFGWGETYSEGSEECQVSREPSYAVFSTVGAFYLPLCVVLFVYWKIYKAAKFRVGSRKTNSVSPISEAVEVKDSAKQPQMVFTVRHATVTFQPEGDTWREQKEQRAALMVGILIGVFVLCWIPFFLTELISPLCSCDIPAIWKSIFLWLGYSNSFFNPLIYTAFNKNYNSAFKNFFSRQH

SMILES: Cc1cc2n(c1)Cc1cc(Cl)ccc1N=C2N1CCN(CC(C)(C)C(=O)O)CC1 [Example 13, 3-[4-(7-Chloro-2-methyl-5H-pyrrolo[2,1-c][1,4]benzodiazepin-11-yl)piperazin-1-yl]-2,2-dimethylpropanoic acid dihydrochloride]
- Dopamine Transporter [1]: >880
- Ki [2]: > 9090 nM
- Ki [3]: 1860 nM
- Rebound Insomnia, Adj. Mean ([4]; 0.03 mg/kg PO): -0.7 min
- REM inhibition, Adj. Mean ([4]; 0.03 mg/kg PO): 1.8 min
- Cumulative NREM sleep, Adj. Mean ([4]; 0.03 mg/kg PO): 5.1 min
- Cumulative Total sleep, Adj. Mean ([4]; 0.03 mg/kg PO): 7.3 min
- Locomotor Activity Intensity, Adj. Mean ([4]; 0.03 mg/kg PO): −0.97 LMA counts per minute of EEG-defined wakefulness
- Average Sleep Bout, Adj. Mean ([4]; 0.03 mg/kg PO): 1.1 n-fold
- Longest Sleep Bout, Adj. Mean ([4]; 0.03 mg/kg PO): 1.3 n-fold
- Rebound Insomnia, Adj. Mean ([4]; 0.10 mg/kg PO): -5.4 min
- REM inhibition, Adj. Mean ([4]; 0.10 mg/kg PO): 1.0 min
- Cumulative NREM sleep, Adj. Mean ([4]; 0.10 mg/kg PO): 5.9 min
- Cumulative Total sleep, Adj. Mean ([4]; 0.10 mg/kg PO): 5.9 min
- Locomotor Activity Intensity, Adj. Mean ([4]; 0.10 mg/kg PO): −0.35 LMA counts per minute of EEG-defined wakefulness
- Average Sleep Bout, Adj. Mean ([4]; 0.10 mg/kg PO): 1.1 n-fold
- Longest Sleep Bout, Adj. Mean ([4]; 0.10 mg/kg PO): 1.7 n-fold
- Rebound Insomnia, Adj. Mean ([4]; 0.25 mg/kg PO): -1.9 min
- REM inhibition, Adj. Mean ([4]; 0.25 mg/kg PO): 4.7 min
- Cumulative NREM sleep, Adj. Mean ([4]; 0.25 mg/kg PO): 15.2 min
- Cumulative Total sleep, Adj. Mean ([4]; 0.25 mg/kg PO): 17.7 min
- Locomotor Activity Intensity, Adj. Mean ([4]; 0.25 mg/kg PO): −0.58 LMA counts per minute of EEG-defined wakefulness
- Average Sleep Bout, Adj. Mean ([4]; 0.25 mg/kg PO): 1.2 n-fold
- Longest Sleep Bout, Adj. Mean ([4]; 0.25 mg/kg PO): 1.7 n-fold
- Rebound Insomnia, Adj. Mean ([4]; 0.50 mg/kg PO): -7.2 min
- REM inhibition, Adj. Mean ([4]; 0.50 mg/kg PO): 5.8 min
- Cumulative NREM sleep, Adj. Mean ([4]; 0.50 mg/kg PO): 22.2 min
- Cumulative Total sleep, Adj. Mean ([4]; 0.50 mg/kg PO): 25.1 min
- Locomotor Activity Intensity, Adj. Mean ([4]; 0.50 mg/kg PO): −0.14 LMA counts per minute of EEG-defined wakefulness
- Average Sleep Bout, Adj. Mean ([4]; 0.50 mg/kg PO): 1.4 n-fold
- Longest Sleep Bout, Adj. Mean ([4]; 0.50 mg/kg PO): 1.8 n-fold
- Rebound Insomnia, Adj. Mean ([4]; 1 mg/kg PO): -9.7 min
- REM inhibition, Adj. Mean ([4]; 1 mg/kg PO): 2.6 min
- Cumulative NREM sleep, Adj. Mean ([4]; 1 mg/kg PO): 28.0 min
- Cumulative Total sleep, Adj. Mean ([4]; 1 mg/kg PO): 30.6 min
- Locomotor Activity Intensity, Adj. Mean ([4]; 1 mg/kg PO): −2.94 LMA counts per minute of EEG-defined wakefulness
- Average Sleep Bout, Adj. Mean ([4]; 1 mg/kg PO): 1.6 n-fold
- Longest Sleep Bout, Adj. Mean ([4]; 1 mg/kg PO): 2.5 n-fold
- REM sleep inhibition (in words) ([4]; 3 mg/kg): without significant
- cumulative NREM sleep time (in words) ([4]; 3 mg/kg): significantly increase
- cumulative total sleep time (in words) ([4]; 3 mg/kg): significantly increase
- inhibition of locomotor intensity (LMI) (in words) ([4]; 3 mg/kg): without significant
- rebound insomnia (in words) ([4]; 3 mg/kg): without significant
- Rebound Insomnia, Adj. Mean ([4]; 3 mg/kg PO): -7.8 min
- REM inhibition, Adj. Mean ([4]; 3 mg/kg PO): 7.0 min
- Cumulative NREM sleep, Adj. Mean ([4]; 3 mg/kg PO): 39.5 min
- Cumulative Total sleep, Adj. Mean ([4]; 3 mg/kg PO): 42.3 min
- Locomotor Activity Intensity, Adj. Mean ([4]; 3 mg/kg PO): −1.49 LMA counts per minute of EEG-defined wakefulness
- Average Sleep Bout, Adj. Mean ([4]; 3 mg/kg PO): 1.8 n-fold
- Longest Sleep Bout, Adj. Mean ([4]; 3 mg/kg PO): 2.7 n-fold
- Rebound Insomnia, Adj. Mean ([4]; 10 mg/kg PO): 3.1 min
- REM inhibition, Adj. Mean ([4]; 10 mg/kg PO): 2.9 min
- Cumulative NREM sleep, Adj. Mean ([4]; 10 mg/kg PO): 51.8 min
- Cumulative Total sleep, Adj. Mean ([4]; 10 mg/kg PO): 52.8 min
- Locomotor Activity Intensity, Adj. Mean ([4]; 10 mg/kg PO): −0.11 LMA counts per minute of EEG-defined wakefulness
- Average Sleep Bout, Adj. Mean ([4]; 10 mg/kg PO): 2.3 n-fold
- Longest Sleep Bout, Adj. Mean ([4]; 10 mg/kg PO): 3.1 n-fold
- Estimated efficacy dose (mg/kg), NREM accumulation = 30 min [4, 5]: 1.2 mg/kg
- Estimated efficacy dose (mg/kg), average sleep bout (1.5-fold increase) [4, 5]: 0.77 mg/kg
- Estimated efficacy dose (mg/kg), longest sleep bout (1.75-fold increase) [4, 5]: 0.21 mg/kg
- Estimated efficacy dose (mg/kg), total sleep accumulation = 25 min [4, 5]: 0.58 mg/kg
